Measurements taken from article PMC12608329, “Inhibition of α-Glucosidase Activity and Islet Amyloid PolyPeptide Fibril Formation by Rubus ulmifolius Fruit Extract: A Potential Therapeutic Approach for Type 2 Diabetes Mellitus” (Plants, 2025).

Experiments:
[1] = ABTS radical scavenging activity; conditions: mean ± SD, three independent assays
Description: [50]. A volume of 10 μL of the extract was mixed with 1 mL of ABTS+ solution previously diluted to reach an absorbance of approximately 0.70 ± 0.05 (mean ± SD). After 1 min of incubation, the absorbance was recorded at 734 nm. Trolox (6-hydroxy-2,5,7,8-tetramethylchroman-2-carboxylic acid) was employed as the reference antioxidant. Results were expressed as the effective concentration required to achieve 50% reduction of the initial absorbance (EC50).

IAPP = tested on: IAPP; set-up: method as in PMID 40305223; conditions: cited from earlier work
[2] = tested on: human islets exposed to amylin; set-up: method as in PMID 34614009; conditions: cited from earlier work

## Cc1c(C)c2c(c(C)c1O)CCC(C)(C(=O)O)O2 (centres unmarked) [Trolox, 6-hydroxy-2,5,7,8-tetramethylchroman-2-carboxylic acid]
[1]
  ABTS EC50: 3.4 ± 0.3 mg/L

## COc1cc(/C=C/C(=O)CC(=O)/C=C/c2ccc(O)c(OC)c2)ccc1O [curcumin]
IAPP
  IAPP aggregation: reduce IAPP aggregation

## OC[C@H]1O[C@@H](Oc2cc3c(O)cc(O)cc3[o+]c2-c2ccc(O)c(O)c2)[C@H](O)[C@@H](O)[C@@H]1O [cyanidin 3-O-glucoside, cyanidin-3-O-glucoside]
[2]
  amyloid formation in human islets exposed to amylin: inhibit amyloid formation
  cell viability of human islets exposed to amylin: increase cell viability

## epigallocatechin 3-gallate
IAPP
  IAPP aggregation: reduce IAPP aggregation
